Starred links: 1 amine or outer side, 2 acyl side, 3 side chain; linkers in the order of their positions; H or OH if unused. Positions of bridges follow the written chain, without caps; N, C: chain ends. Non-standard residues stand in square brackets, D forms with d. Residues, ends and D or L forms follow the SMILES beside them. X1 = CN[C@@H](C)[C@H](N[*:1])C(=O)[*:2]
Experiments:
[1] = system: PC-3; assay: Cytotoxicity against human PC-3 cells assessed as decrease in cell viability measured after 24 hrs by MTT assay; assay type: functional
[2] = system: MDA-MB-231; assay: Cytotoxicity against human MDA-MB-231 cells assessed as decrease in cell viability measured after 24 hrs by MTT assay; assay type: functional
[3] = Hemolytic activity against human RBC incubated for 1 hr; assay type: ADME, cell-based, Erythrocyte; settings: red blood cells (erythrocytes), read-out: CC50
[4] = Cytotoxicity against HUVEC cells assessed as decrease in cell viability measured after 24 hrs by MTT assay; assay type: cell-based; settings: human

Compound | CC50 [1] [nM] | CC50 [2] [nM] | HC50 at 1 h [3] [µM] | CC50 at 24 h [4] [nM]
CC[C@H](C)[C@@H]1NC(=O)[C@H](CCCNC(=N)N)NC(=O)CNC(=O)[C@H](CCCCN)NC(=O)[C@@H]2CSSC[C@@H]3NC(=O)[C@H](CO)NC(=O)[C@H](CCC(=O)O)NC(=O)CNC(=O)[C@@H]4CSSC[C@H](NC(=O)CNC(=O)[C@H]([C@@H](C)CC)NC(=O)[C@H](C(C)C)NC(=O)[C@H](CO)NC(=O)[C@H]([C@@H](C)O)NC(=O)[C@H](Cc5ccccc5)NC(=O)[C@H](CSSC[C@H](NC1=O)C(=O)N[C@@H](C(C)C)C(=O)N[C@@H](CCCNC(=N)N)C(=O)N[C@@H](Cc1ccccc1)C(=O)N[C@@H](CCC(N)=O)C(=O)N4)NC(=O)[C@H](Cc1ccc(O)cc1)NC(=O)[C@H]([C@@H](C)O)NC(=O)[C@H]([C@@H](C)O)NC(=O)[C@H]([C@@H](C)CC)NC(=O)[C@H](CCSC)NC(=O)CNC3=O)C(=O)N[C@@H](CO)C(=O)N2 (cyclo(CFTSVIGCSCKGRICVRFQCGESCGMITTY); disulfide 1-15, 8-20, 10-24) [listing 1 of 2 here] | 1300 | 4100 |  | 
CC[C@H](C)[C@@H]1NC(=O)[C@@H]2CSSC[C@@H]3NC(=O)[C@H](C(C)C)NC(=O)[C@H](CCCCN)NC(=O)[C@H](CC(N)=O)NC(=O)[C@H](CCC(N)=O)NC(=O)[C@@H]4CSSC[C@H](NC(=O)[C@H](CO)NC(=O)[C@H](CCC(=O)O)NC(=O)CNC(=O)[C@H](CSSC[C@H](NC(=O)CNC(=O)[C@H]([C@H](C)NC)NC(=O)[C@H](C(C)C)NC(=O)[C@H](C)NC(=O)[C@H](CO)NC1=O)C(=O)N[C@@H](CCCCN)C(=O)N4)NC(=O)[C@@H]1CCCN1C(=O)[C@H]([C@@H](C)CC)NC(=O)[C@H](C)NC(=O)[C@H](CCCNC(=N)N)NC(=O)[C@H](Cc1ccc(O)cc1)NC3=O)C(=O)N[C@@H](C(C)C)C(=O)N[C@@H](Cc1ccc(O)cc1)C(=O)N[C@@H]([C@@H](C)CC)C(=O)N1CCC[C@H]1C(=O)N2 (cyclo(AIPCGESCVYIPCISAV[X1]GCKCQNKVCYR); disulfide 4-20, 8-22, 13-27) [listing 1 of 2 here] |  |  | 20.1 | 
CC[C@H](C)[C@@H]1NC(=O)[C@@H]2CSSC[C@@H]3NC(=O)[C@H](C(C)C)NC(=O)[C@H](CCCCN)NC(=O)[C@H](CC(N)=O)NC(=O)[C@H](CCCCN)NC(=O)[C@@H]4CSSC[C@H](NC(=O)[C@H](CO)NC(=O)[C@H](CCC(=O)O)NC(=O)CNC(=O)[C@H](CSSC[C@H](NC(=O)CNC(=O)[C@H]([C@@H](C)CC)NC(=O)[C@H](C(C)C)NC(=O)[C@H](CO)NC(=O)[C@H](CO)NC1=O)C(=O)N[C@@H](CO)C(=O)N4)NC(=O)[C@@H]1CCCN1C(=O)[C@H]([C@@H](C)CC)NC(=O)[C@H](C)NC(=O)[C@H](CCCNC(=N)N)NC(=O)[C@H](Cc1ccc(O)cc1)NC3=O)C(=O)N[C@@H](C(C)C)C(=O)N[C@@H](Cc1ccc(O)cc1)C(=O)N[C@@H]([C@@H](C)CC)C(=O)N1CCC[C@H]1C(=O)N2 (cyclo(AIPCGESCVYIPCISSVIGCSCKNKVCYR); disulfide 4-20, 8-22, 13-27) | 500 | 800 | 8.8 | 
CC[C@H](C)[C@@H]1CC(=O)[C@H](C)NC(=O)[C@H](CCCNC(=N)N)NC(=O)[C@H](Cc2ccc(O)cc2)NC(=O)[C@@H]2CSSC[C@@H]3NC(=O)[C@@H]4CCCN4C(=O)[C@H]([C@@H](C)CC)NC(=O)[C@H](Cc4ccc(O)cc4)NC(=O)[C@H](C(C)C)NC(=O)[C@@H]4CSSC[C@H](NC(=O)[C@H](CO)NC(=O)[C@H](CSSC[C@H](NC(=O)[C@@H]5CCCN5C1=O)C(=O)NCC(=O)N[C@@H](CCC(=O)O)C(=O)N[C@@H](CO)C(=O)N4)NC(=O)CNC(=O)[C@H]([C@@H](C)CC)NC(=O)[C@H](C)NC(=O)[C@H](C)NC(=O)[C@H]([C@H](C)O)NC(=O)[C@H](CC(C)C)NC3=O)C(=O)N[C@@H](CCCCN)C(=O)N[C@@H](CC(N)=O)C(=O)N[C@@H](CCCCN)C(=O)N[C@@H](C(C)C)C(=O)N2 | 300 | 600 |  | 200
CC[C@H](C)[C@@H]1NC(=O)[C@@H]2CSSC[C@@H]3NC(=O)[C@H](C(C)C)NC(=O)[C@H](CCCCN)NC(=O)[C@H](CC(N)=O)NC(=O)[C@H](CCC(N)=O)NC(=O)[C@@H]4CSSC[C@H](NC(=O)[C@H](CO)NC(=O)[C@H](CCC(=O)O)NC(=O)CNC(=O)[C@H](CSSC[C@H](NC(=O)CNC(=O)[C@H]([C@H](C)NC)NC(=O)[C@H](C(C)C)NC(=O)[C@H](C)NC(=O)[C@H](CO)NC1=O)C(=O)N[C@@H](CCCCN)C(=O)N4)NC(=O)[C@@H]1CCCN1C(=O)[C@H]([C@@H](C)CC)NC(=O)[C@H](C)NC(=O)[C@H](CCCNC(=N)N)NC(=O)[C@H](Cc1ccc(O)cc1)NC3=O)C(=O)N[C@@H](C(C)C)C(=O)N[C@@H](Cc1ccc(O)cc1)C(=O)N[C@@H]([C@@H](C)CC)C(=O)N1CCC[C@H]1C(=O)N2 (cyclo(AIPCGESCVYIPCISAV[X1]GCKCQNKVCYR); disulfide 4-20, 8-22, 13-27) [listing 2 of 2 here] | 1200 | 2300 |  | 
CC[C@H](C)[C@@H]1NC(=O)[C@H](C)NC(=O)[C@H](CO)NC(=O)[C@H](CO)NC(=O)[C@H]([C@@H](C)CC)NC(=O)[C@@H]2CSSC[C@@H]3NC(=O)[C@H](C(C)C)NC(=O)[C@H](CCCCN)NC(=O)[C@H](CO)NC(=O)[C@H](CCCCN)NC(=O)[C@@H]4CSSC[C@H](NC(=O)[C@H](CO)NC(=O)[C@H](CCC(=O)O)NC(=O)CNC(=O)[C@H](CSSC[C@H](NC(=O)CNC1=O)C(=O)N[C@@H](CO)C(=O)N4)NC(=O)[C@@H]1CCCN1C(=O)[C@H]([C@@H](C)CC)NC(=O)CNC(=O)[C@H](CC(N)=O)NC(=O)[C@H](CCCNC(=N)N)NC(=O)[C@H](Cc1ccc(O)cc1)NC3=O)C(=O)N[C@@H](C(C)C)C(=O)N[C@@H](Cc1c[nH]c3ccccc13)C(=O)N[C@@H]([C@@H](C)CC)C(=O)N1CCC[C@H]1C(=O)N2 (cyclo(AIGCSCKSKVCYRNGIPCGESCVWIPCISS); disulfide 4-18, 6-22, 11-27) | 600 | 1100 | 18.5 | 500
CC[C@H](C)[C@@H]1NC(=O)[C@H](CCCNC(=N)N)NC(=O)CNC(=O)[C@H](CCCCN)NC(=O)[C@@H]2CSSC[C@@H]3NC(=O)[C@H](CO)NC(=O)[C@H](CCC(=O)O)NC(=O)CNC(=O)[C@@H]4CSSC[C@H](NC(=O)CNC(=O)[C@H]([C@@H](C)CC)NC(=O)[C@H](C(C)C)NC(=O)[C@H](CO)NC(=O)[C@H]([C@@H](C)O)NC(=O)[C@H](Cc5ccccc5)NC(=O)[C@H](CSSC[C@H](NC1=O)C(=O)N[C@@H](C(C)C)C(=O)N[C@@H](CCCNC(=N)N)C(=O)N[C@@H](Cc1ccccc1)C(=O)N[C@@H](CCC(N)=O)C(=O)N4)NC(=O)[C@H](Cc1ccc(O)cc1)NC(=O)[C@H]([C@@H](C)O)NC(=O)[C@H]([C@@H](C)O)NC(=O)[C@H]([C@@H](C)CC)NC(=O)[C@H](CCSC)NC(=O)CNC3=O)C(=O)N[C@@H](CO)C(=O)N2 (cyclo(CFTSVIGCSCKGRICVRFQCGESCGMITTY); disulfide 1-15, 8-20, 10-24) [listing 2 of 2 here] |  |  | > 33 | 1200
CC[C@H](C)[C@@H]1NC(=O)[C@@H]2CSSC[C@@H]3NC(=O)[C@H](C(C)C)NC(=O)[C@H](CCCCN)NC(=O)[C@H](CC(=O)NN)NC(=O)[C@H](CCCCN)NC(=O)[C@@H]4CSSC[C@H](NC(=O)[C@H](CO)NC(=O)[C@H](CCC(=O)O)NC(=O)CNC(=O)[C@H](CSSC[C@H](NC(=O)CNC(=O)[C@H]([C@@H](C)CC)NC(=O)[C@H](C(C)C)NC(=O)[C@H](CCC(N)=O)NC(=O)[C@H](CO)NC1=O)C(=O)N[C@@H](CCCCN)C(=O)N4)NC(=O)[C@@H]1CCCN1C(=O)[C@H]([C@@H](C)CC)NC(=O)[C@H](C)NC(=O)[C@H](CCCNC(=N)N)NC(=O)[C@H](Cc1ccc(O)cc1)NC3=O)C(=O)N[C@@H](C(C)C)C(=O)N[C@@H](Cc1ccc(O)cc1)C(=O)N[C@@H]([C@@H](C)CC)C(=O)N1CCC[C@H]1C(=O)N2 | 1500 | 2200 |  | 1000
CC[C@H](C)[C@@H]1NC(=O)[C@H](CC(C)C)NC(=O)[C@H](C)NC(=O)[C@H]([C@H](C)O)NC(=O)[C@H](C(C)C)NC(=O)[C@H]([C@H](C)O)NC(=O)[C@H](CS)NC(=O)[C@@H]2CCCN2C1=O | 700 | 1500 | 21.9 | 900
CC(C)C[C@@H]1NC(=O)CNC(=O)[C@H](CC(N)=O)NC(=O)[C@H](CCCNC(=N)N)NC(=O)[C@H]([C@@H](C)O)NC(=O)[C@@H]2CSSC[C@@H]3NC(=O)[C@H]([C@@H](C)O)NC(=O)CNC(=O)CNC(=O)[C@H](C(C)C)NC(=O)[C@@H]4CSSC[C@H](NC(=O)[C@H]([C@@H](C)O)NC(=O)[C@H](CSSC[C@H](NC(=O)[C@H](C(C)C)NC(=O)[C@@H]5CCCN5C1=O)C(=O)NCC(=O)N[C@@H](CCC(=O)O)C(=O)N[C@@H]([C@@H](C)O)C(=O)N4)NC(=O)CNC(=O)[C@@H]1CCCN1C(=O)[C@H]([C@@H](C)O)NC(=O)[C@H](CC(N)=O)NC3=O)C(=O)N[C@@H](CO)C(=O)N[C@@H](Cc1c[nH]c3ccccc13)C(=O)N1CCC[C@H]1C(=O)N[C@@H](C(C)C)C(=O)N2 | 3100 | 5100 |  | 

— ChEMBL document CHEMBL4811230, “In Planta Discovery and Chemical Synthesis of Bracelet Cystine Knot Peptides from Rinorea bengalensis” (J Nat Prod, 2021)
